SMILES strings stand for the structures.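 In this assay, cells in 96-well plates receive the compound at five concentrations for 48 hours. Endpoints are linearly interpolated between the surrounding concentrations. At the GI50, growth is halved.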 Activity calls are given as the source filed them. Cut-off read from the data, not from the text of the source: active = GI50 up to about 1.1 µM and inactive = higher. Numbered stars: 1 amine (or outer) side, 2 acyl side, 3 side chain; on linkers, the order of the positions; unused ones are H or OH. Square brackets hold non-standard residues; d marks the D form. Peptide text beside a SMILES is read from it. * marks the point of attachment. X30 = CC(=O)N(C)SCC(N[*:1])C(=O)[*:2]; Cbz = O=C(OCc1ccccc1)*; Bn = c1ccc(C*)cc1

Among the test systems are ACHN; CAKI-1; EKVX; KM12; NCI-H226; NCI/ADR-RES; OVCAR-4; OVCAR-5; RPMI-8226; RXF 393; SK-OV-3; SNB-75; SR; SW-620; UO-31; CCRF-CEM; HOP-62; SK-MEL-28; U-251.
Holding throughout (assay): inhibition of tumour cell growth, NCI panel, 48 h

Regarding `FC1C2=C(SC1(F)F)C1CCC2C1` (stereo not given), the GI50 in the assay on ACHN, with CAKI-1, with EKVX, in the assay on KM12, in the assay with NCI-H226 and with NCI/ADR-RES was > 100 µM (inactive) throughout. In addition, the GI50 with OVCAR-4, with OVCAR-5, in the assay with RPMI-8226, in the assay with RXF 393, in the assay on SK-OV-3 and in the assay on SNB-75 was > 100 µM (inactive) each time. Further, the GI50 in the assay on SR, in the assay with SW-620 and in the assay on UO-31 was > 100 µM (inactive) throughout.
Regarding `O=C(O)c1cc(Cl)cc(Cc2cc(Cl)cc(C(=O)O)c2O)c1O`, the GI50 in the assay with ACHN, with CAKI-1, in the assay on CCRF-CEM, in the assay on EKVX, with HOP-62 and with KM12 was > 100 µM (inactive) throughout. Besides, the GI50 with NCI/ADR-RES, in the assay with OVCAR-4, in the assay on OVCAR-5, with RPMI-8226, in the assay with RXF 393 and in the assay with SK-MEL-28 was > 100 µM (inactive) throughout. For the same compound, the GI50 in the assay on SK-OV-3, in the assay with SNB-75, with SR, in the assay with SW-620, in the assay with U-251 and in the assay with UO-31 was > 100 µM (inactive) throughout.
For the compound `Nc1ncnc2c1ncn2C1OC(COP(=O)(O)CP(=O)(O)O)C(O)C1O` (stereo not given), the GI50 in the assay with ACHN, in the assay on CAKI-1, with CCRF-CEM, with EKVX, with HOP-62 and with KM12 was > 100 µM (inactive) each time. The GI50 in the assay on NCI-H226, in the assay on NCI/ADR-RES, in the assay with OVCAR-5, with RPMI-8226, in the assay on RXF 393 and in the assay with SK-MEL-28 was > 100 µM (inactive) each time. In addition, the GI50 in the assay on SK-OV-3, with SNB-75, in the assay with SR, in the assay with SW-620, in the assay with U-251 and in the assay on UO-31 was > 100 µM (inactive) throughout.
Take `CC(C)C[C@H](NC(=O)CCc1ccccc1)B(O)O`: the GI50 in the assay with ACHN was 5.79 µM (inactive); in the assay with CAKI-1 it was 5.08 µM (inactive); in the assay on CCRF-CEM, 2.33 µM (inactive); in the assay with EKVX it was 42.1 µM (inactive); with HOP-62, 16.8 µM (inactive); in the assay with KM12, 16.7 µM (inactive). Besides, the GI50 was 1.62 µM (inactive) in the assay with NCI-H226; 22.7 µM (inactive) in the assay with NCI/ADR-RES; 36.5 µM (inactive) in the assay with OVCAR-4; 13.6 µM (inactive) in the assay with OVCAR-5; 2.24 µM (inactive) in the assay on RPMI-8226; 5.66 µM (inactive) with RXF 393. Moreover, the GI50 in the assay with SK-MEL-28 was 11 µM (inactive); in the assay with SR it was 2.72 µM (inactive); with SW-620 it was 4.83 µM (inactive); in the assay on U-251 it was 31.4 µM (inactive); in the assay on UO-31 it was 15.8 µM (inactive).
Regarding `COc1ccc(/C=N/NC(=S)Nc2cc(C)ccc2OC)cc1`, the GI50 was 37.2 µM (inactive) with ACHN; 29.7 µM (inactive) with CAKI-1; 22.3 µM (inactive) in the assay with CCRF-CEM; 20.8 µM (inactive) in the assay on EKVX; 34.8 µM (inactive) in the assay on HOP-62; 31.7 µM (inactive) in the assay with KM12. The GI50 in the assay on NCI/ADR-RES is 41.9 µM (inactive); with OVCAR-4, 23.8 µM (inactive); in the assay on OVCAR-5, 16.9 µM (inactive); in the assay with RPMI-8226 it was 11.1 µM (inactive); with RXF 393, 33.7 µM (inactive); with SK-MEL-28, 34.8 µM (inactive). Moreover, the GI50 with SK-OV-3 is 51.8 µM (inactive); in the assay with SNB-75 it was > 100 µM (inactive); in the assay on SR it was 9.08 µM (inactive); in the assay on SW-620 it was 34.7 µM (inactive); in the assay with UO-31 it was 37.9 µM (inactive).
Take `CCOC(=O)c1ccc(/N=C/C=C(\Nc2ccc(C(=O)OCC)cc2)C23CC4CC(CC(C4)C2)C3)cc1`: the GI50 in the assay with ACHN was 93.1 µM (inactive); in the assay on CAKI-1 it was > 100 µM (inactive); in the assay on EKVX, 48.4 µM (inactive); in the assay on HOP-62 it was > 100 µM (inactive); in the assay with KM12, 43.5 µM (inactive); in the assay with NCI-H226, > 100 µM (inactive). Also, the GI50 was > 100 µM (inactive) in the assay on NCI/ADR-RES; 70 µM (inactive) with OVCAR-4; 35.8 µM (inactive) with OVCAR-5; 27 µM (inactive) in the assay on RXF 393; > 100 µM (inactive) in the assay on SK-MEL-28; > 100 µM (inactive) in the assay with SK-OV-3. In addition, the GI50 in the assay on SNB-75 was 65.6 µM (inactive); in the assay with SR it was 11.1 µM (inactive); with SW-620, 27.5 µM (inactive); in the assay with U-251, > 100 µM (inactive); in the assay with UO-31, 3.43 µM (inactive).
For `CN(CC#N)C(=O)Cc1ccc([N+](=O)[O-])cc1`, the GI50 in the assay on ACHN, with CAKI-1, in the assay with CCRF-CEM, in the assay on EKVX, in the assay with HOP-62 and with KM12 was > 10 µM (inactive) each time. Further, the GI50 in the assay with NCI-H226, in the assay on NCI/ADR-RES, in the assay with OVCAR-4, with OVCAR-5, with RPMI-8226 and in the assay on RXF 393 was > 10 µM (inactive) in each case. The GI50 in the assay on SK-MEL-28, with SK-OV-3, in the assay with SR, in the assay on SW-620, with U-251 and with UO-31 was > 10 µM (inactive) throughout.
Regarding `NS(=O)(=O)c1nnc(NC(=O)c2ccccc2)s1`, the GI50 with ACHN, in the assay with CAKI-1, with EKVX, with HOP-62, with KM12 and in the assay on NCI-H226 was > 100 µM (inactive) in each case. The GI50 with NCI/ADR-RES was > 100 µM (inactive); in the assay with OVCAR-4 it was 0.536 µM (active); with OVCAR-5, > 100 µM (inactive); in the assay on RPMI-8226, > 100 µM (inactive); in the assay on RXF 393, > 100 µM (inactive); with SK-MEL-28 it was > 100 µM (inactive). The GI50 in the assay with SK-OV-3, with SR, with SW-620, with U-251 and in the assay with UO-31 was > 100 µM (inactive) in each case.
In the case of `Cc1cc2c(cc1Cl)Sc1nnc(Nc3ccccc3)n1S2(=O)=O`, the GI50 is 12.2 µM (inactive) in the assay with ACHN; 11.1 µM (inactive) with CAKI-1; 11.7 µM (inactive) in the assay with EKVX; 3.64 µM (inactive) in the assay with HOP-62; 12 µM (inactive) in the assay with KM12; 3.08 µM (inactive) in the assay on NCI-H226. Further, the GI50 with NCI/ADR-RES is 6.22 µM (inactive); with OVCAR-4, 6.89 µM (inactive); in the assay on OVCAR-5, 31.9 µM (inactive); in the assay with RPMI-8226 it was 2.61 µM (inactive); with RXF 393, 5.26 µM (inactive); in the assay on SK-MEL-28, 15.8 µM (inactive). In addition, the GI50 was 5.47 µM (inactive) in the assay with SNB-75; 2.59 µM (inactive) with SR; 7.87 µM (inactive) in the assay with SW-620; 3.75 µM (inactive) with U-251; 13.4 µM (inactive) with UO-31.
Take `CC(=O)N(C)SCC(NC(=O)C(Cc1ccccc1)NC(=O)OCc1ccccc1)C(=O)NC(Cc1ccccc1)C(=O)NC(Cc1c[nH]c2ccccc12)C(=O)NC(CCCCNC(=O)OCc1ccccc1)C(=O)NC(C(=O)NC(CSN(C)C(C)=O)C(=O)NC(C(N)=O)C(C)OCc1ccccc1)C(C)OCc1ccccc1` (stereo not given) (Cbz-F[X30]FWK(Cbz)T(Bn)[X30]T(Bn)-NH2; configuration not given here): the GI50 is > 100 µM (inactive) in the assay with ACHN; > 100 µM (inactive) with CCRF-CEM; > 100 µM (inactive) with EKVX; > 100 µM (inactive) with HOP-62; 40.9 µM (inactive) in the assay with KM12; > 100 µM (inactive) in the assay on NCI-H226. The GI50 in the assay on NCI/ADR-RES is > 100 µM (inactive); in the assay on OVCAR-4, > 100 µM (inactive); in the assay on OVCAR-5 it was > 100 µM (inactive); in the assay with RPMI-8226, 74.3 µM (inactive); with RXF 393 it was > 100 µM (inactive); in the assay on SK-MEL-28 it was > 100 µM (inactive). Also, the GI50 with SK-OV-3 is 1.63 µM (inactive); in the assay on SNB-75, > 100 µM (inactive); in the assay on SR, > 100 µM (inactive); in the assay on SW-620 it was > 100 µM (inactive); with U-251, 70.5 µM (inactive); in the assay with UO-31, > 100 µM (inactive).
On to `COC(=O)C1=C(OC)[C@H]2C#C/C=C\C#C[C@@H]3Nc4c(cc(O)c5c4C(=O)c4ccccc4C5=O)[C@]24O[C@@]34[C@H]1C`, for which the GI50 is < 0.01 µM (active) in the assay with ACHN; < 0.01 µM (active) in the assay on CAKI-1; < 0.01 µM (active) in the assay on CCRF-CEM; < 0.012 µM (active) in the assay with EKVX; < 0.01 µM (active) with HOP-62; < 0.01 µM (active) with KM12. In addition, the GI50 is < 0.01 µM (active) with NCI-H226; < 0.01 µM (active) in the assay on NCI/ADR-RES; 0.0519 µM (active) with OVCAR-4; < 0.01 µM (active) in the assay with OVCAR-5; < 0.01 µM (active) in the assay on RPMI-8226; < 0.0229 µM (active) in the assay on SK-MEL-28. Also, the GI50 in the assay with SK-OV-3, in the assay on SNB-75, in the assay on SR, with SW-620, in the assay on U-251 and in the assay with UO-31 was < 0.01 µM (active) throughout.

Source of the values: ChEMBL document CHEMBL1201862, “PubChem BioAssay data set” (2004).
